In this assay the target is T1, MMP-1 full-length (Homo sapiens, UniProt P03956).
T1 construct: have also been assayed with MMP-1 full-length
T1 sequence (P03956 100-469): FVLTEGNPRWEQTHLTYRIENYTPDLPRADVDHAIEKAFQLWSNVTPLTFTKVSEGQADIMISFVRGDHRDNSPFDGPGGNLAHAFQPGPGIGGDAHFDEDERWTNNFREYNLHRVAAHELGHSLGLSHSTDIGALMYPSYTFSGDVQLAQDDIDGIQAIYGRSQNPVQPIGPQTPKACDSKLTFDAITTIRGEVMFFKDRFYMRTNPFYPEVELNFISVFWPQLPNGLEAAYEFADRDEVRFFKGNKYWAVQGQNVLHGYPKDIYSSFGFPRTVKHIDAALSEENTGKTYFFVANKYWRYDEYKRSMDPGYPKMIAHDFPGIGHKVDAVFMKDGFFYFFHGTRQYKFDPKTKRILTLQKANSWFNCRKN
Description: Thiopeptolide substrate hydrolysis inhibition assay, MMP-1 full-length. The class given is biochemical. The following applies: full-length enzyme; read-out: MMP-1FL IC50. The text has this: The assay methods of Biological Examples 1-4 measure the amount by which a test compound reduces the hydrolysis of a thiopeptolide substrate catalyzed by a matrix metalloproteinase enzyme or catalytic domain thereof. It has been shown previously by Ye Qi-Zhuang, Hupe D., and Johnson L. (Current Medicinal Chemistry, 1996;3:407-418) that inhibitor activity against a catalytic domain of an MMP is predictive of the inhibitor activity against the respective full-length MMP enzyme. The methods described below for the inhibition of MMP-13 may also be adapted and used to determine the ability of the compounds of Formula I to inhibit other matrix metalloproteases such as MMP-1, MMP-2, MMP-3, MMP-7, MMP-8, MMP-9, MMP-12, MMP-14, MMP-17, and the like.
Thiopeptolide substrates show virtually no decomposition or hydrolysis at or below neutral pH in the absence of a matrix metalloproteinase enzyme. A typical thiopeptolide substrate commonly utilized for assays is Ac-Pro-Leu-Gly-thioester-Leu-Leu-Gly-OEt. A 100 μL assay mixture will contain 50 mM of N-2-hydroxyethylpiperazine-N′-2-ethanesulfonic acid buffer (“HEPES,” pH 7.0), 10 mM CaCl2, 100 μM thiopeptolide substrate, and 1 mM 5,5′-dithio-bis-(2-nitro-benzoic acid) (DTNB). […] The change in absorbance at 405 nm is monitored on a Thermo Max microplate reader (molecular Devices, Menlo Park, Calif.) at room temperature (22° C.). The calculation of the amount of hydrolysis of the thiopeptolide substrate is based on E412=13600 M^−1 cm^−1 for the DTNB-derived product 3-carboxy-4-nitrothiophenoxide. Assays are carried out with and without matrix metalloproteinase inhibitor compounds, and the amount of hydrolysis is compared for a determination of inhibitory activity of the test compounds.
Test compounds were evaluated at various concentrations in order to determine their respective IC50 values, the micromolar concentration of compound required to cause a 50% inhibition of catalytic activity of the respective enzyme.
Some representative compounds of Formula I have been evaluated for their ability to inhibit MMP-13, MMP-1FL, MMP-3CD, MMP-7FL, MMP-8FL, MMP-9FL, MMP-12CD, MMP-14CD, and/or MMP-17CD, wherein FL means full-length enzyme and CD means a catalytic domain of the full-length enzyme. Test compounds can be evaluated at various concentrations in order to determine their respective IC50 values, the micromolar concentration of compound required to cause a 50% inhibition of the hydrolytic activity of the respective enzyme.
Certain compounds of Formula I have also been assayed with MMP-1 full-length, MMP-3 catalytic domain, MMP-7 full-length, MMP-8 full-length, MMP-9 full-length, MMP-12 catalytic domain, MMP-14 catalytic domain, and MMP-17 catalytic domain. […] In Biological Table 2, the compound example numbers for the Compound Examples are indicated in the column labelled “Ex. No.”

Bounds are passed on as bounds.

As a reminder, the IC50 is the concentration at which inhibition is half-maximal.

Turning to `COc1ccc(CNC(=O)c2cc3c(=O)n(Cc4ccc(C(=O)O)cc4)cnc3cn2)cc1` [Compound Example 1, 4-[6-(4-methoxy-benzylcarbamoyl)-4-oxo-4H-pyrido[3,4-d]pyrimidin-3-ylmethyl]-benzoic acid], the IC50 is above 100 µM.

The values are drawn from patent publication US20050085447A1, “Pyrido[3,4-d]pyrimidine derivatives as matrix metalloproteinase-13 inhibitors” (Warner-Lambert Company LLC, priority 2003, published 2005).
